According to US20260083851A1 (AVILAR THERAPEUTICS, INC., priority 2022, published 2026):
pKd: −log10 of the molar value.

Biological target: T1, ASGP receptor (biotinylated ASGPR) (Homo sapiens, UniProt P07306)
T1 construct: biotin (biotinylated)
T1 sequence (P07306 1-291): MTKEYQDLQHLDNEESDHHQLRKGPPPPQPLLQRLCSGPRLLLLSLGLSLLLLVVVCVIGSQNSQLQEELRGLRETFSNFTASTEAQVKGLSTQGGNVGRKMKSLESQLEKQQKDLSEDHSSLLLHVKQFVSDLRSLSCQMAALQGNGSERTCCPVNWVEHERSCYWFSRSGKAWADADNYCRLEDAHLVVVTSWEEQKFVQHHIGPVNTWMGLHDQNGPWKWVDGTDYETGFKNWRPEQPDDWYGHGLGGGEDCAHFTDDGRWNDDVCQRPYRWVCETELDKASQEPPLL
Assay type: binding
Details: SPR, Biacore 8K, 25° C.; Table 1A; read-out: ASGPR KD

Row | pKd | Compound
1 | > 5.00 | O=C(NC[C@H]1OC[C@H](Nc2cncc(C(F)(F)F)n2)[C@@H](O)[C@H]1O)c1ncc[nH]1 [A40, N-(((2R,3R,4R,5S)-3,4-dihydroxy-5-((6-(trifluoromethyl)pyrazin-2-yl)amino)tetrahydro-2H-pyran-2-yl)methyl)-1H-imidazole-2-carboxamide]
2 | > 5.00 | O[C@@H]1[C@H](O)[C@@H](Nc2cncc(C(F)(F)F)n2)CO[C@@H]1CNc1ccnnc1 [A41, (2R,3R,4R,5S)-2-((pyridazin-4-ylamino)methyl)-5-((6-(trifluoromethyl)pyrazin-2-yl)amino)tetrahydro-2H-pyran-3,4-diol]
3 | > 5.00 | O=C(NC[C@H]1OC[C@H](Nc2cncc(C(F)(F)F)n2)[C@@H](O)[C@H]1O)c1cnco1 [A48, N-(((2R,3R,4R,5S)-3,4-dihydroxy-5-((6-(trifluoromethyl)pyrazin-2-yl)amino)tetrahydro-2H-pyran-2-yl)methyl)oxazole-5-carboxamide]
4 | > 5.00 | O=C(NC[C@H]1OC[C@H](Nc2cncc(C(F)(F)F)n2)[C@@H](O)[C@H]1O)c1ccn[nH]1 [A49]
5 | > 5.00 | O[C@@H]1[C@H](O)[C@@H](Nc2cncc(C(F)(F)F)n2)CO[C@@H]1COc1cnccn1 [A60, (2R,3R,4R,5S)-2-((pyrazin-2-yloxy)methyl)-5-((6-(trifluoromethyl)pyrazin-2-yl)amino)tetrahydro-2H-pyran-3,4-diol]
6 | > 5.00 | O[C@@H]1[C@H](O)[C@@H](Nc2cncc(C(F)(F)F)n2)CO[C@@H]1COc1ncccn1 [A61, (2R,3R,4R,5S)-2-((pyrimidin-2-yloxy)methyl)-5-((6-(trifluoromethyl)pyrazin-2-yl)amino)tetrahydro-2H-pyran-3,4-diol]
7 | > 5.00 | O=C(NC[C@H]1OC[C@H](Nc2cncc(C(F)(F)F)n2)[C@@H](O)[C@H]1O)c1cccnc1 [A63, N-(((2R,3R,4R,5S)-3,4-dihydroxy-5-((6-(trifluoromethyl)pyrazin-2-yl)amino)tetrahydro-2H-pyran-2-yl)methyl)nicotinamide]
8 | > 5.00 | OC[C@H]1CC[C@H](Nc2cncc(C(F)(F)F)n2)[C@@H](O)[C@H]1O [A65, (1R,2S,3R,6S)-3-(hydroxymethyl)-6-((6-(trifluoromethyl)pyrazin-2-yl)amino)cyclohexane-1,2-diol]
9 | > 5.00 | O[C@@H]1[C@H](O)[C@@H](Nc2cncc(C(F)(F)F)n2)CO[C@@H]1CN1CCCNCC1 [A68, (2R,3R,4R,5S)-2-((1,4-diazepan-1-yl)methyl)-5-((6-(trifluoromethyl)pyrazin-2-yl)amino)tetrahydro-2H-pyran-3,4-diol]
10 | > 5.00 | O[C@@H]1[C@H](O)[C@@H](Nc2cncc(C(F)(F)F)n2)CO[C@@H]1CN1CCCCCC1 [A70, (2R,3R,4R,5S)-2-(azepan-1-ylmethyl)-5-((6-(trifluoromethyl)pyrazin-2-yl)amino)tetrahydro-2H-pyran-3,4-diol]

Second part, the compound before the results:

Row | Compound | pKd
11 | O=C(O)CNC(COCCC(=O)NCCOCCOCCOCCO[C@@H]1O[C@H](CO)[C@H](O)[C@H](O)[C@H]1Nc1cncc(C(F)(F)F)n1)COCCC(=O)NCCOCCOCCOCCO[C@@H]1O[C@H](CO)[C@H](O)[C@H](O)[C@H]1Nc1cncc(C(F)(F)F)n1 [A35, (1,35-bis(((2R,3R,4R,5R,6R)-4,5-dihydroxy-6-(hydroxymethyl)-3-((6-(trifluoromethyl)pyrazin-2-yl)amino)tetrahydro-2H-pyran-2-yl)oxy)-13,23-dioxo-3,6,9,16,20,27,30,33-octaoxa-12,24-diazapentatriacontan-18-yl)glycine] | > 5.00
12 | O=C(NC[C@H]1OC[C@H](Nc2cncc(C(F)(F)F)n2)[C@@H](O)[C@H]1O)c1ccccc1 [A36, N-(((2R,3R,4R,5S)-3,4-dihydroxy-5-((6-(trifluoromethyl)pyrazin-2-yl)amino)tetrahydro-2H-pyran-2-yl)methyl)benzamide] | > 5.00
13 | O[C@@H]1[C@H](O)[C@@H](Nc2cncc(C(F)(F)F)n2)CO[C@@H]1CNc1cccnn1 [A37, (2R,3R,4R,5S)-2-((pyridazin-3-ylamino)methyl)-5-((6-(trifluoromethyl)pyrazin-2-yl)amino)tetrahydro-2H-pyran-3,4-diol] | > 5.00
14 | O=C(O)c1ccc(-c2ccc(C(=O)NC[C@H]3OC[C@H](Nc4cncc(C(F)(F)F)n4)[C@@H](O)[C@H]3O)cc2)cc1 [A38, 4′-((((2R,3R,4R,5S)-3,4-dihydroxy-5-((6-(trifluoromethyl)pyrazin-2-yl)amino)tetrahydro-2H-pyran-2-yl)methyl)carbamoyl)-[1,1′-biphenyl]-4-carboxylic acid] | > 5.00
15 | O=C(NC[C@H]1OC[C@H](Nc2cncc(C(F)(F)F)n2)[C@@H](O)[C@H]1O)c1cc(F)ccn1 [A39, N-(((2R,3R,4R,5S)-3,4-dihydroxy-5-((6-(trifluoromethyl)pyrazin-2-yl)amino)tetrahydro-2H-pyran-2-yl)methyl)-4-fluoropicolinamide] | > 5.00
16 | O=C(NC[C@H]1OC[C@H](Nc2cncc(C(F)(F)F)n2)[C@@H](O)[C@H]1O)c1n[nH]c2ccccc12 [A44, N-(((2R,3R,4R,5S)-3,4-dihydroxy-5-((6-(trifluoromethyl)pyrazin-2-yl)amino)tetrahydro-2H-pyran-2-yl)methyl)-1H-indazole-3-carboxamide] | > 5.00
17 | NCCCCCC(=O)NC(COCCC(=O)NCCOCCOCCOCCOC[C@H]1OC[C@H](Nc2nccc(C(F)(F)F)n2)[C@@H](O)[C@H]1O)COCCC(=O)NCCOCCOCCOCCOC[C@H]1OC[C@H](Nc2nccc(C(F)(F)F)n2)[C@@H](O)[C@H]1O [A45, 3,3′-((2-(6-aminohexanamido)propane-1,3-diyl)bis(oxy))bis(N-(1-((2R,3R,4R,5S)-3,4-dihydroxy-5-((4-(trifluoromethyl)pyrimidin-2-yl)amino)tetrahydro-2H-pyran-2-yl)-2,5,8,11-tetraoxatridecan-13-yl)propanamide)] | > 5.00
18 | O=C(NC[C@H]1OC[C@H](Nc2cncc(C(F)(F)F)n2)[C@@H](O)[C@H]1O)c1ncco1 [A50] | > 5.00
19 | O=C(O)c1ccc2c(c1)C(F)(F)c1cc(C(=O)NC[C@H]3OC[C@H](Nc4cncc(C(F)(F)F)n4)[C@@H](O)[C@H]3O)ccc1-2 [A52] | > 5.00
20 | NCCOCCOCCOC[C@H]1OC[C@H](Nc2cncc(C(F)(F)F)n2)[C@@H](O)[C@H]1O [A53, (2R,3R,4R,5S)-2-((2-(2-(2-aminoethoxy)ethoxy)ethoxy)methyl)-5-((6-(trifluoromethyl)pyrazin-2-yl)amino)tetrahydro-2H-pyran-3,4-diol] | > 5.00
21 | OC[C@H]1CC[C@H](Nc2nccc(C(F)(F)F)n2)[C@@H](O)[C@H]1O [A54, (1R,2S,3R,6S)-3-(hydroxymethyl)-6-((4-(trifluoromethyl)pyrimidin-2-yl)amino)cyclohexane-1,2-diol] | 4.00 to 5.00
22 | CC(NC[C@H]1OC[C@H](Nc2cncc(C(F)(F)F)n2)[C@@H](O)[C@H]1O)c1ncccn1 (stereo partly drawn) [A55, (2R,3R,4R,5S)-2-(((1-(pyrimidin-2-yl)ethyl)amino)methyl)-5-((6-(trifluoromethyl)pyrazin-2-yl)amino)tetrahydro-2H-pyran-3,4-diol] | > 5.00
23 | O[C@@H]1[C@H](O)[C@@H](Nc2cncc(C(F)(F)F)n2)CO[C@@H]1COCCOCCNc1cnccn1 [A56, (2R,3R,4R,5S)-2-((2-(2-(pyrazin-2-ylamino)ethoxy)ethoxy)methyl)-5-((6-(trifluoromethyl)pyrazin-2-yl)amino)tetrahydro-2H-pyran-3,4-diol] | > 5.00
24 | NCCOCCOCC(=O)NC[C@H]1OC[C@H](Nc2cncc(C(F)(F)F)n2)[C@@H](O)[C@H]1O [A57, 2-(2-(2-aminoethoxy)ethoxy)-N-(((2R,3R,4R,5S)-3,4-dihydroxy-5-((6-(trifluoromethyl)pyrazin-2-yl)amino)tetrahydro-2H-pyran-2-yl)methyl)acetamide] | > 5.00
25 | O=C(O)CN1CCC(N2CCC(C(=O)NC[C@H]3OC[C@H](Nc4cncc(C(F)(F)F)n4)[C@@H](O)[C@H]3O)CC2)CC1 [A62, 2-(4-((((2R,3R,4R,5S)-3,4-dihydroxy-5-((6-(trifluoromethyl)pyrazin-2-yl)amino)tetrahydro-2H-pyran-2-yl)methyl)carbamoyl)-[1,4′-bipiperidin]-1′-yl)acetic acid] | > 5.00
26 | O=C(O)c1cc2ccc1CCc1ccc(c(C(=O)NC[C@H]3OC[C@H](Nc4cncc(C(F)(F)F)n4)[C@@H](O)[C@H]3O)c1)CC2 [A66, 4^3-((((2R,3R,4R,5S)-3,4-dihydroxy-5-((6-(trifluoromethyl)pyrazin-2-yl)amino)tetrahydro-2H-pyran-2-yl)methyl)carbamoyl)-1,4(1,4)-dibenzenacyclohexaphane-1^2-carboxylic acid] | > 5.00
27 | O=C(NC[C@H]1OC[C@H](Nc2cncc(C(F)(F)F)n2)[C@@H](O)[C@H]1O)c1ccc(-c2ccccc2)cn1 [A67, N-(((2R,3R,4R,5S)-3,4-dihydroxy-5-((6-(trifluoromethyl)pyrazin-2-yl)amino)tetrahydro-2H-pyran-2-yl)methyl)-5-phenylpicolinamide] | > 5.00
28 | O=C(NC[C@H]1OC[C@H](Nc2cncc(C(F)(F)F)n2)[C@@H](O)[C@H]1O)c1ccc2[nH]cnc2n1 [A69, N-(((2R,3R,4R,5S)-3,4-dihydroxy-5-((6-(trifluoromethyl)pyrazin-2-yl)amino)tetrahydro-2H-pyran-2-yl)methyl)-1H-imidazo[4,5-b]pyridine-5-carboxamide] | > 5.00
29 | O=C(NC[C@H]1OC[C@H](Nc2cncc(C(F)(F)F)n2)[C@@H](O)[C@H]1O)c1cnc2ccccc2n1 [A71, N-(((2R,3R,4R,5S)-3,4-dihydroxy-5-((6-(trifluoromethyl)pyrazin-2-yl)amino)tetrahydro-2H-pyran-2-yl)methyl)quinoxaline-2-carboxamide] | > 5.00
